The values that follow come from patent publication US20040232089A1, “Biocidal compounds for treating water” (VANETTA S.p.A., priority 2003, published 2004).

This data set is described as follows: Biodegradability OECD 301 A (92/69/EEC C4-A). The note with it: 7 days after the beginning of the test. How it is done: In fact, based on data available with respect to the most similar compounds to the menadione derivatives disclosed herein, one would expect a degradability in the range of 0% (percentage calculated based on the initial mass expressed in mg/l) typical of menadione (2-methyl-1,4-naphthalenedione) and 17% (assessed after 28 days) typical of menadione sodium bisulphite (which calculation was performed in accordance with the guidelines OECD301 A attached to directive EEC 92/69/EEC C4-A).
Finally biodegradability was also evaluated according to standard 92/69/EEC C4-A. From the data, both MNB and MPB result to have a remarkably better biodegradability than 2-methyl-1,4-naphthalenedione and particularly than MSB.

Regarding `CC1(S(=O)(=O)O)CC(=O)c2ccccc2C1=O.NC(=O)c1cccnc1` (stereo not shown) [MNB, menadione nicotinamide bisulphite], the “degradability relative to that of MSB” value is “eight”.
